Results published in patent US11377442B2, “Small molecule agonists and antagonists of NR2F6 activity” (ZANDER THERAPEUTICS, INC., priority 2016, dated 2022).
Like-named read-outs stand apart in the source and are kept apart here.

Tests used:
Type in all cases: cell-based
[1] = molecular target: T1, NR2F6 (Homo sapiens, UniProt P10588); assay: NR2F6 agonist screening, Firefly signal cmpd/DMSO
T1 construct: expressed in transfected cells; also transient transfection
T1 sequence (P10588 1-404): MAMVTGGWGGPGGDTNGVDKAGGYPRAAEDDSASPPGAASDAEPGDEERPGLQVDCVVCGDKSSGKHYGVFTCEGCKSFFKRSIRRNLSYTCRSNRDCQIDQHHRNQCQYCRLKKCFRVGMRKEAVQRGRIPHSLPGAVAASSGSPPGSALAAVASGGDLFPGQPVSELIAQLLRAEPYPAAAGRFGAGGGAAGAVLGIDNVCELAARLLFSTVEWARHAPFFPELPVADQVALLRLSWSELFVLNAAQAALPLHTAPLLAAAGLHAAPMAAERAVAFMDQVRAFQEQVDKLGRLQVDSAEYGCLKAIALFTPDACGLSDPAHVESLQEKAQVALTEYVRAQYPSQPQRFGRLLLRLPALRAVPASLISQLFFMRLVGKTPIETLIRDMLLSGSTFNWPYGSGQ

[2] = test system: Renilla; assay: Renilla signal in NR2F6 agonist screening, cmpd/DMSO; settings: Renilla
[3] = test system: HEK293 pGL4; assay: Firefly_pGL signal, cmpd/DMSO (pGL4 control cells); settings: Homo sapiens
[4] = molecular target: T2, NR2F6 LBD (Homo sapiens, UniProt P10588); assay: NR2F6 LBD transient transfection
T2 construct: expressed in transfected cells
T2 sequence (P10588 165-393 limits assumed): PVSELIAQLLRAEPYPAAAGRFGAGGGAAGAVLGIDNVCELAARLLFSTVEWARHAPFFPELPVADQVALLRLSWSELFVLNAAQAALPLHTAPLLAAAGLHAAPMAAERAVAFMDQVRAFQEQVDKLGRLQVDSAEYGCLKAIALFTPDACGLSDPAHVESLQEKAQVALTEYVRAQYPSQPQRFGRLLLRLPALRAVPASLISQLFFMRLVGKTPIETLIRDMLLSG
How it was run: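 LBD-transfected cells treated at 40, 10, 2 and 0.5 μM (4 replicates); cytotoxicity measured in parallel, normalized to DMSO (0%) and zero signal (100%). Higher concentrations excluded where signal loss reflected toxicity.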

[5] = test system: Renilla; assay: Renilla signal, LBD, cmpd/DMSO (NR2F6 LBD transfected cells)
[6] = read-out: Renilla F4, cmpd/DMSO (mean)
[7] = F4, 1% FBS, read-out: Renilla, F4, 1% FBS, cmpd/DMSO (mean)
[8] = F4, 10% FBS, read-out: Renilla, F4, 10% FBS, cmpd/DMSO (mean)
[9] = HEK293, 0.5 uM, read-out: Firefly pGL4, cmpd/DMSO (mean)
[10] = HEK293, 2 uM, read-out: Firefly pGL4, cmpd/DMSO (mean)
[11] = HEK293, 10 uM, read-out: Firefly pGL4, cmpd/DMSO (mean)
[12] = HEK293, 40 uM, read-out: Firefly pGL4, cmpd/DMSO (mean)
[13] = HEK293, pGL4, 1% FBS, 0.5 uM, read-out: Firefly, pGL4, 1% FBS, cmpd/DMSO (mean)
[14] = HEK293, pGL4, 1% FBS, 2 uM, read-out: Firefly, pGL4, 1% FBS, cmpd/DMSO (mean)
[15] = HEK293, pGL4, 1% FBS, 10 uM, read-out: Firefly, pGL4, 1% FBS, cmpd/DMSO (mean)
[16] = HEK293, pGL4, 1% FBS, 40 uM, read-out: Firefly, pGL4, 1% FBS, cmpd/DMSO (mean)
[17] = HEK293, pGL4, 10% FBS, 0.5 uM, read-out: Firefly, pGL4, 10% FBS, cmpd/DMSO (mean)
[18] = HEK293, pGL4, 10% FBS, 2 uM, read-out: Firefly, pGL4, 10% FBS, cmpd/DMSO (mean)
[19] = HEK293, pGL4, 10% FBS, 10 uM, read-out: Firefly, pGL4, 10% FBS, cmpd/DMSO (mean)
[20] = HEK293, pGL4, 10% FBS, 40 uM, read-out: Firefly, pGL4, 10% FBS, cmpd/DMSO (mean)

Question: What does the source list for `O=S1(=O)C[C@H](NCC2CCCO2)[C@@H](S(=O)(=O)c2cccs2)C1` (stereo partly drawn) [Compound D134]?
Answer: Firefly F4, cmpd/DMSO (mean) ([1]; 0.5 uM): 1.5; Firefly F4, cmpd/DMSO (mean) ([1]; 2 uM): 2.3; Firefly F4, cmpd/DMSO (mean) ([1]; 10 uM): 2.1; Firefly F4, cmpd/DMSO (mean) ([1]; 40 uM): 2.8; F4, Firefly/Renilla for S/B(F4) > 3 ([1]; 1% FBS, 40 uM): 2.6; Firefly, F4/pGL4 for S/B(F4) > 3 ([1]; 1% FBS, 40 uM): 4.0; F4, Firefly/Renilla for S/B(F4) > 3 ([1]; 10% FBS, 40 uM): 2.3; Firefly, F4/pGL4 for S/B(F4) > 3 ([1]; 10% FBS, 40 uM): 2.3; Firefly, F4, 1% FBS, cmpd/DMSO (mean) ([1]; 1% FBS, 0.5 uM): 1.0; Firefly, F4, 1% FBS, cmpd/DMSO (mean) ([1]; 1% FBS, 2 uM): 1.2; Firefly, F4, 1% FBS, cmpd/DMSO (mean) ([1]; 1% FBS, 10 uM): 2.0; Firefly, F4, 1% FBS, cmpd/DMSO (mean) ([1]; 1% FBS, 40 uM): 5.4; Firefly, F4, 10% FBS, cmpd/DMSO (mean) ([1]; 10% FBS, 0.5 uM): 1.1; Firefly, F4, 10% FBS, cmpd/DMSO (mean) ([1]; 10% FBS, 2 uM): 1.0; Firefly, F4, 10% FBS, cmpd/DMSO (mean) ([1]; 10% FBS, 10 uM): 2.1; Firefly, F4, 10% FBS, cmpd/DMSO (mean) ([1]; 10% FBS, 40 uM): 4.6; fold induction at 0.5 µM [2, 6]: 1.1; fold induction at 2 µM [2, 6]: 1.2; fold induction at 10 µM [2, 6]: 1.3; fold induction at 40 µM [2, 6]: 1.5; fold induction at 0.5 µM [2, 7]: 1; fold induction at 2 µM [2, 7]: 1.2; fold induction at 10 µM [2, 7]: 1.4; fold induction at 40 µM [2, 7]: 2.1; fold induction at 0.5 µM [2, 8]: 1; fold induction at 2 µM [2, 8]: 1; fold induction at 10 µM [2, 8]: 1.3; fold induction at 40 µM [2, 8]: 2; fold induction at 0.5 µM [3, 9]: 1; fold induction at 2 µM [3, 10]: 1.3; fold induction at 10 µM [3, 11]: 1.6; fold induction at 40 µM [3, 12]: 1.7; fold induction at 0.5 µM [3, 13]: 1; fold induction at 2 µM [3, 14]: 1.3; fold induction at 10 µM [3, 15]: 1.3; fold induction at 40 µM [3, 16]: 1.4; fold induction at 0.5 µM [3, 17]: 1.2; fold induction at 2 µM [3, 18]: 1.3; fold induction at 10 µM [3, 19]: 1.7; fold induction at 40 µM [3, 20]: 2; Firefly LBD, cmpd/DMSO (mean) ([4]; 0.5 uM): 1.5; Firefly LBD, cmpd/DMSO (mean) ([4]; 2 uM): 1.5; Firefly LBD, cmpd/DMSO (mean) ([4]; 10 uM): 1.9; Firefly LBD, cmpd/DMSO (mean) ([4]; 40 uM): 1.8; Renilla LBD, cmpd/DMSO (mean) ([5]; 0.5 uM): 0.9; Renilla LBD, cmpd/DMSO (mean) ([5]; 2 uM): 0.9; Renilla LBD, cmpd/DMSO (mean) ([5]; 10 uM): 1.0; Renilla LBD, cmpd/DMSO (mean) ([5]; 40 uM): 0.7

Question: Which results are given for `O=S1(=O)C[C@H](NCc2ccco2)[C@@H](S(=O)(=O)c2cccs2)C1` [Compound D135]?
Answer: Firefly F4, cmpd/DMSO (mean) ([1]; 0.5 uM): 1.7; Firefly F4, cmpd/DMSO (mean) ([1]; 2 uM): 2.4; Firefly F4, cmpd/DMSO (mean) ([1]; 10 uM): 1.9; Firefly F4, cmpd/DMSO (mean) ([1]; 40 uM): 2.8; F4, Firefly/Renilla for S/B(F4) > 3 ([1]; 1% FBS, 40 uM): 1.9; Firefly, F4/pGL4 for S/B(F4) > 3 ([1]; 1% FBS, 40 uM): 3.0; F4, Firefly/Renilla for S/B(F4) > 3 ([1]; 10% FBS, 40 uM): 1.9; Firefly, F4/pGL4 for S/B(F4) > 3 ([1]; 10% FBS, 40 uM): 2.3; Firefly, F4, 1% FBS, cmpd/DMSO (mean) ([1]; 1% FBS, 0.5 uM): 1.2; Firefly, F4, 1% FBS, cmpd/DMSO (mean) ([1]; 1% FBS, 2 uM): 1.6; Firefly, F4, 1% FBS, cmpd/DMSO (mean) ([1]; 1% FBS, 10 uM): 1.1; Firefly, F4, 1% FBS, cmpd/DMSO (mean) ([1]; 1% FBS, 40 uM): 3.3; Firefly, F4, 10% FBS, cmpd/DMSO (mean) ([1]; 10% FBS, 0.5 uM): 1.0; Firefly, F4, 10% FBS, cmpd/DMSO (mean) ([1]; 10% FBS, 2 uM): 0.7; Firefly, F4, 10% FBS, cmpd/DMSO (mean) ([1]; 10% FBS, 10 uM): 1.8; Firefly, F4, 10% FBS, cmpd/DMSO (mean) ([1]; 10% FBS, 40 uM): 3.7; fold induction at 0.5 µM [2, 6]: 0.9; fold induction at 2 µM [2, 6]: 1.2; fold induction at 10 µM [2, 6]: 1; fold induction at 40 µM [2, 6]: 1.3; fold induction at 0.5 µM [2, 7]: 1; fold induction at 2 µM [2, 7]: 1.3; fold induction at 10 µM [2, 7]: 1.2; fold induction at 40 µM [2, 7]: 1.7; fold induction at 0.5 µM [2, 8]: 1; fold induction at 2 µM [2, 8]: 1.1; fold induction at 10 µM [2, 8]: 1.1; fold induction at 40 µM [2, 8]: 1.9; fold induction at 0.5 µM [3, 9]: 1; fold induction at 2 µM [3, 10]: 1.6; fold induction at 10 µM [3, 11]: 1.4; fold induction at 40 µM [3, 12]: 1.3; fold induction at 0.5 µM [3, 13]: 1; fold induction at 2 µM [3, 14]: 1; fold induction at 10 µM [3, 15]: 0.8; fold induction at 40 µM [3, 16]: 1.1; fold induction at 0.5 µM [3, 17]: 0.9; fold induction at 2 µM [3, 18]: 1.1; fold induction at 10 µM [3, 19]: 1.7; fold induction at 40 µM [3, 20]: 1.6; Firefly LBD, cmpd/DMSO (mean) ([4]; 0.5 uM): 1.4; Firefly LBD, cmpd/DMSO (mean) ([4]; 2 uM): 1.7; Firefly LBD, cmpd/DMSO (mean) ([4]; 10 uM): 1.6; Firefly LBD, cmpd/DMSO (mean) ([4]; 40 uM): 2.8; Renilla LBD, cmpd/DMSO (mean) ([5]; 0.5 uM): 0.9; Renilla LBD, cmpd/DMSO (mean) ([5]; 2 uM): 0.9; Renilla LBD, cmpd/DMSO (mean) ([5]; 10 uM): 0.8; Renilla LBD, cmpd/DMSO (mean) ([5]; 40 uM): 0.9
